Experimental data published in ChEMBL document CHEMBL4706757, “Novel Substituted Pyridazines as Splicing Modulators for Modulating Splicing of mRNA and Uses Thereof for Treating Diseases” (ACS Med Chem Lett, 2021).

Key:
Type in all cases: cell-based
[1] = Modulation of HTT mRNA exon 49-50 splicing in human GM04724 cells incubated for 24 hrs by TaqMan qPCR analysis; conditions: GM04724, 24 h
[2] = Modulation of HTT mRNA exon 49b splicing in human GM04724 cells incubated for 24 hrs by TaqMan qPCR analysis; conditions: GM04724, 24 h
[3] = Modulation of HTT mRNA splicing in human GM04724 cells assessed as mHTT protein level incubated for 48 hrs by 2B7-MW1 assay; conditions: GM04724, 48 h

Measured: EC50

C[C@@]12CCC[C@@](C)(N1)[C@H](F)[C@H](Oc1ccc(-c3ccc(-c4cn[nH]c4)cc3O)nn1)C2
≤ 0.01 nM: all assays above

Cn1cc(-c2cc(O)c(-c3ccc(O[C@@H]4C[C@@H]5CCC[C@@H](N5)[C@@H]4F)nn3)cc2F)cn1
≤ 0.01 nM: all assays above

Oc1cc(-c2cn[nH]c2)c(F)cc1-c1ccc(O[C@@H]2C[C@@H]3CCC[C@@H](N3)[C@@H]2F)nn1
≤ 0.01 nM: all assays above

Oc1cc(-c2cn[nH]c2)c(F)cc1-c1ccc(O[C@H]2C[C@H]3CCC[C@H](N3)[C@H]2F)nn1
≤ 0.01 nM: all assays above

Oc1cc(-c2cn[nH]c2)ccc1-c1ccc(O[C@H]2C[C@H]3CCC[C@H](N3)[C@H]2F)nn1
≤ 0.01 nM: all assays above

Oc1cc(-c2cn[nH]c2)ccc1-c1ccc(O[C@@H]2C[C@@H]3CCC[C@@H](N3)[C@@H]2F)nn1
≤ 0.01 nM: all assays above

C[C@]12CCC[C@](C)(N1)[C@@H](F)[C@@H](Oc1ccc(-c3ccc(-c4cn[nH]c4)cc3O)nn1)C2
≤ 0.01 nM: all assays above

Cn1cc(-c2cc(O)c(-c3ccc(O[C@H]4C[C@H]5CCC[C@H](N5)[C@H]4F)nn3)cc2F)cn1
≤ 0.01 nM: all assays above
